Values quoted from earlier work as cited in patent US20190320896A1, “STROKE, CONCUSSION, AND COGNITIVE DYSFUNCTION DIAGNOSTIC METHOD AND DEVICE” (priority 2018, published 2019).

Legend:
[1] = human, in vivo
[2] = after administration; metabolized by the kidneys
[3] = upon entering the circulation after bolus injection into a peripheral vein

| GLOS also affecting the aqueous chamber, cases [1] | GLOS in both chambers, patients [1] | GLOS in the aqueous chamber alone, patients [1] | GLOS in the vitreous chamber alone, patients [1] | GLOS present, always involving the vitreous chamber, patients [1] | time to elimination through the urine [2] | dye molecules bound to plasma proteins [3] | Compound |
| --- | --- | --- | --- | --- | --- | --- | --- |
| 6 % of cases | 27 % of patients | 67 % of patients | 6 % of patients | 75 % patients | – | – | O=C([O-])CN(CCN(CC(=O)[O-])CC(=O)[O-])CCN(CC(=O)[O-])CC(=O)[O-].[Gd+3] [gadolinium, Gadolinium-DTPA] |
| – | – | – | – | – | 24 to 36 h | approximately 80% | O=C1OC2(c3ccc(O)cc3Oc3cc(O)ccc32)c2ccccc21 [sodium fluorescein] |
